{"source": "paper PMC8252432", "about": "(Angewandte Chemie (International Ed. in English), 2021)", "system": "trypsin", "test": "Trypsin digestion of Angiotensin III, LC-MS", "assay_type": "in vitro ADME", "conditions": "10 mM phosphate buffer pH 7.4, no nanoparticle (Figure 1a)"}
{"smiles": "CC[C@H](C)[C@H](NC(=O)[C@H](Cc1ccc(O)cc1)NC(=O)[C@@H](NC(=O)[C@@H](N)CCCN=C(N)N)C(C)C)C(=O)N[C@@H](Cc1c[nH]cn1)C(=O)N1CCC[C@H]1C(=O)N[C@@H](Cc1ccccc1)C(=O)O", "note": "[A‐III, Angiotensin III]", "values": [{"measurement": "time in which the peptide could be cleaved in buffer", "result": 120, "unit": "min"}]}
